# Reference: PubChem BioAssay AID1033 (Sanford-Burnham Center for Chemical Genomics, 2008)
# Activity calls are given as the source filed them. How the calls were made is not given here.
# Target: Chaperone protein DnaK (Escherichia coli (strain K12)) (UniProt P0A6Y8)
# Test: binders of DnaK substrate-binding domain, biophysical, NMR, chaperone (AID 1033)
# Settings: Purified DnaK SBD, NMR ligand binding
# Sequence of Chaperone protein DnaK (Escherichia coli (strain K12)) (P0A6Y8 whole entry, looked up, the tested form may be a part): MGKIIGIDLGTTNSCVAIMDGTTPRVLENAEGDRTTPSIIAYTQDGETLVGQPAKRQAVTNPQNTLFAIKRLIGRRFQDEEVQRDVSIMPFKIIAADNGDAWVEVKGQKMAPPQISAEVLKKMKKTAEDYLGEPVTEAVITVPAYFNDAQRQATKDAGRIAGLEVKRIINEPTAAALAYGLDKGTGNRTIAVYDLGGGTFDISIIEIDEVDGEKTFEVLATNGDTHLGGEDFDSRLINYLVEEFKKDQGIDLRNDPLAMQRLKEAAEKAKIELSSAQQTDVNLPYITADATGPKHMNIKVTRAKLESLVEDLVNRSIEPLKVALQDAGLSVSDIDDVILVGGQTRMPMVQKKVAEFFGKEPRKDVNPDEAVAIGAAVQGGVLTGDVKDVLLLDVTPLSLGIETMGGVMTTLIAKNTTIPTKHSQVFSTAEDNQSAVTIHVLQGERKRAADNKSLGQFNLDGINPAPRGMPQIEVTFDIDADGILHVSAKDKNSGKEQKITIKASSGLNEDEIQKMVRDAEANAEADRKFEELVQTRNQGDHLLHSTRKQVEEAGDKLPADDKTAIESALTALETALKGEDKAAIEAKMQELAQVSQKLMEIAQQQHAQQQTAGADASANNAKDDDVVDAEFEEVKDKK
row,SMILES,Kd
1,O=C1C2C3C=CC(C3)C2C(=O)N1c1cccnc1 (stereo not drawn),> 4 mM (inactive)
2,Cn1nc(C(C)(C)C)cc1N,> 4 mM (inactive)
3,Cc1sc2nc(C)n(NC(N)=O)c(=O)c2c1C,> 4 mM (inactive)
4,O=C(O)CS(=O)(=O)c1ccccc1,> 4 mM (inactive)
5,Cc1sc2nc(SCC(=O)N(C)C)[nH]c(=O)c2c1C,> 4 mM (inactive)
6,CNC(Cc1c[nH]c2ccccc12)C(=O)O (stereo not drawn),> 4 mM (inactive)
7,Cc1ccc(N2C(=O)CC(Sc3ncn[nH]3)C2=O)cc1 (stereo not drawn),> 4 mM (inactive)
8,COc1cc(OC)cc(-c2nc(N)n[nH]2)c1,> 4 mM (inactive)
9,c1ccc2[nH]c(CCn3cncn3)nc2c1,> 4 mM (inactive)
10,Cc1cc(C(=O)Nc2ccc3c(c2)OCO3)cs1,> 4 mM (inactive)
11,COc1ccc(/C=C/c2cc(O)cc(O)c2)cc1,> 4 mM (inactive)
12,O=C(O)c1cc(F)cc2c1OCOC2,> 4 mM (inactive)
13,CSc1ccccc1NC(=O)c1c(C)noc1C,> 4 mM (inactive)
14,S=C(c1ccc2c(c1)OCO2)N1CCCC1,> 4 mM (inactive)
15,CCN=Cc1c(O)n(-c2ccccc2C)c(=O)[nH]c1=O,> 4 mM (inactive)
16,CC(=O)Nc1ccncc1NC(C)=O,> 4 mM (inactive)
17,OC/C=C/c1ccc(O)c(O)c1,> 4 mM (inactive)
18,CCCNC(CC(=O)Nc1cccnc1)C(=O)O (stereo not drawn),> 4 mM (inactive)
19,CC1CCc2cc(F)ccc2N1C(=O)c1ccc(=O)[nH]n1 (stereo not drawn),> 4 mM (inactive)
20,c1cncc(C2CCCCN2)c1 (stereo not drawn),> 4 mM (inactive)
21,Nc1nc(-c2ccccc2)ns1,> 4 mM (inactive)
22,COc1ccc2c3c1O[C@H]1C[C@@H](O)C=C[C@@]31CCN(C)C2,> 4 mM (inactive)
23,Cc1ccc(S(=O)(=O)CC(N)=O)cc1,> 4 mM (inactive)
24,Cn1cnnc1SCC(=O)Nc1nccs1,> 4 mM (inactive)
25,Cn1cnc2nc3n(c2c1=O)CCC3,> 4 mM (inactive)

row,SMILES,Kd
1,Cc1nn(-c2ccccc2)nc1CN,> 4 mM (inactive)
2,Cc1ccc(N2CCN(C(=O)c3ccccc3)CC2)c(C)c1,> 4 mM (inactive)
3,O=C(O)c1ncoc1-c1ccccc1,> 4 mM (inactive)
4,NC(=O)C(=O)Nc1nc(-c2ccccc2)cs1,> 4 mM (inactive)
5,Cc1cc(N)on1,> 4 mM (inactive)
6,COC(=O)c1cccc(N)c1,> 4 mM (inactive)
7,COC(=O)CCC(C)[C@H]1CCC2C3C(C[C@H](O)[C@@]21C)[C@@]1(C)CC[C@@H](O)C[C@H]1C[C@H]3O (stereo partly drawn),> 4 mM (inactive)
8,COc1cc(OC)c2c(OC)c(-c3ccc4c(c3)OCO4)c(=O)oc2c1,> 4 mM (inactive)
9,CCNC(=S)NS(=O)(=O)c1ccccc1,> 4 mM (inactive)
10,O=C(Nc1ccon1)c1csc2c1CCCC2,> 4 mM (inactive)
11,CSc1ccc(C(=S)N2CCN(C)CC2)cc1,> 4 mM (inactive)
12,CC(=O)Nc1ccc(N(C)C(C)=O)cc1,> 4 mM (inactive)
13,COC(=O)C1=C(C)N(c2cccc(C(C)=O)c2)C(=O)C1,> 4 mM (inactive)
14,O=S(=O)(O)c1cc[n+]([O-])cc1,> 4 mM (inactive)
15,OCC1COc2ccccc2C1 (stereo not drawn),> 4 mM (inactive)
16,CON(C)C(=O)Nc1ccc(Cl)cc1,> 4 mM (inactive)
17,COc1ccc(-c2cc(=O)c3ccccc3o2)cc1,> 4 mM (inactive)
18,O=C1C2C3CCC(O3)C2C(=O)N1c1cccc(F)c1 (stereo not drawn),> 4 mM (inactive)
19,OC[C@H]1O[C@@](CO)(O[C@@H]2O[C@H](CO)[C@@H](O)[C@H](O)[C@H]2O)[C@@H](O[C@@H]2O[C@H](CO)[C@@H](O)[C@H](O)[C@H]2O)[C@@H]1O,> 4 mM (inactive)
20,CC(=O)Nc1c(C)n(C)n(-c2ccccc2)c1=O,> 4 mM (inactive)
21,CC(=O)Nc1c(C#N)c(C(C)(C)C)cn1C,> 4 mM (inactive)
22,CN(C(N)=O)C1(C)CCS(=O)(=O)C1 (stereo not drawn),> 4 mM (inactive)
23,Cc1cc(NC(=O)c2ocnc2C)no1,> 4 mM (inactive)
24,Cc1ccccc1NC(=O)C1CCC(=O)N1 (stereo not drawn),> 4 mM (inactive)
25,O=C(NCCO)c1cc2ccccc2cc1O,> 4 mM (inactive)

row,SMILES,Kd
1,COc1ccc(C(=O)/C=C2\NC(=S)NC2=O)cc1,> 4 mM (inactive)
2,NS(=O)(=O)c1ccc2c3c(cccc13)C(=O)N2,> 4 mM (inactive)
3,Cc1noc(C)c1C(=O)N1CCN(c2ncccn2)CC1,> 4 mM (inactive)
4,O=C(O)c1csc(-c2cccs2)n1,> 4 mM (inactive)
5,COCc1cc(=O)oc2cc(O)c(Cl)cc12,> 4 mM (inactive)
6,O=c1ccn(Cc2ccccc2)c(=O)n1Cc1ccccc1,> 4 mM (inactive)
7,COc1ccc(Cc2nnc3c4cnn(C)c4ncn23)cc1,> 4 mM (inactive)
8,Cc1cc(C(=O)Nn2cnnc2)cs1,> 4 mM (inactive)
9,NC(=O)C1CCN(c2ccc(Cl)nn2)CC1,> 4 mM (inactive)
10,Nc1cccc(CC(=S)N2CCOCC2)c1,> 4 mM (inactive)
11,CC(=O)c1c(C)nc(-c2ccc(F)cc2)n1O,> 4 mM (inactive)
12,O=C1NC(=S)N/C1=C\c1cccc([N+](=O)[O-])c1,> 4 mM (inactive)
13,OCc1cc(F)cc2c1OCOC2,> 4 mM (inactive)
14,O=S(=O)(NCc1ccco1)c1cccc2cccnc12,> 4 mM (inactive)
15,NC(=O)C1CCN(C(=O)CN2CCc3ccccc32)CC1,> 4 mM (inactive)
16,CC(CC(=O)O)n1cccn1 (stereo not drawn),> 4 mM (inactive)
17,CCOC(=O)c1c(C)nc2ncccn12,> 4 mM (inactive)
18,COc1cc(/C=C/C(=O)O)ccc1O,> 4 mM (inactive)
19,CC(=O)Nc1nnc(-c2ccccc2)o1,> 4 mM (inactive)
20,CN1CCN(C(=O)c2ccccc2C(=O)O)CC1,> 4 mM (inactive)
21,CC(C)=CCc1c(O)cc2oc(C)cc(=O)c2c1O,> 4 mM (inactive)
22,COC1=CC23CCCN2CCc2cc4c(cc2C3C1O)OCO4 (stereo not drawn),> 4 mM (inactive)
23,NC(=O)Cc1nc(-c2ccc(F)cc2)cs1,> 4 mM (inactive)
24,COc1c2c(cc3c1OCO3)CCN(C)C2,> 4 mM (inactive)
25,COc1ccc([C@@H]2CC(=O)c3c(O)cc(O)cc3O2)cc1O,> 4 mM (inactive)

row,SMILES,Kd
1,CC1=CC(=O)CC(C)(C)C1(O)/C=C/C(C)=C\C(=O)O (stereo not drawn),> 4 mM (inactive)
2,Nc1ncnc2c1ncn2C1C[C@H](O)[C@@H](CO)O1 (stereo partly drawn),> 4 mM (inactive)
3,O=C(O)c1ccc2snnc2c1,> 4 mM (inactive)
4,Nc1cccc(C(=O)c2ccccc2)c1,> 4 mM (inactive)
5,COC(=O)c1ccc2snnc2c1,> 4 mM (inactive)
6,CN1CC(=O)N=C1N,> 4 mM (inactive)
7,C[C@@H]1O[C@@H](O[C@H]2[C@H](Oc3cc(O)c4c(=O)cc(-c5ccc(O)cc5)oc4c3)O[C@H](CO)[C@@H](O)[C@@H]2O)[C@H](O)[C@H](O)[C@H]1O,> 4 mM (inactive)
8,COc1ccc(N=C2NC(=O)CS2)cc1,> 4 mM (inactive)
9,C=C[C@H]1CN2CC[C@H]1C[C@@H]2[C@@H](O)c1ccnc2ccc(OC)cc12,> 4 mM (inactive)
10,c1ccc(NCc2nc(-c3ccccc3)no2)cc1,> 4 mM (inactive)
11,NC(=O)CS(=O)(=O)c1ccc(Cl)cc1,> 4 mM (inactive)
12,O=S1(=O)CCC(NC(=S)N2CCOCC2)C1 (stereo not drawn),> 4 mM (inactive)
13,Cc1nc2c(n1O)CCc1c-2no[n+]1[O-],> 4 mM (inactive)
14,Cc1csc(CCc2nc(C)cs2)n1,> 4 mM (inactive)
15,CC1(C)CC2C1CCC1(C)OC1CCC2(C)O (stereo not drawn),> 4 mM (inactive)
16,N#Cc1nc(-c2cccs2)oc1N1CCOCC1,> 4 mM (inactive)
17,NS(=O)(=O)c1ccccc1Cl,> 4 mM (inactive)
18,Cc1ccc2[nH]cc(CCN)c2c1,> 4 mM (inactive)
19,Cc1cc(C)n2nc(-c3cccnc3)nc2n1,> 4 mM (inactive)
20,COc1ccc2c(CC(=O)O)coc2c1,> 4 mM (inactive)
21,Cc1cc(C)nc(Nc2n[nH]c(Cc3ccccc3)n2)n1,> 4 mM (inactive)
22,Nc1ccc(-c2cn3c(n2)SCC3)cc1,> 4 mM (inactive)
23,CCn1nnc2c(NCc3ccccn3)ncnc21,> 4 mM (inactive)
24,Nc1nnc(SCc2ccccc2Cl)s1,> 4 mM (inactive)
25,Cn1nc(-c2cccs2)cc1N,> 4 mM (inactive)

row,SMILES,Kd
1,CCc1nnc(NC(C)=O)s1,> 4 mM (inactive)
2,Cc1cc(C(=O)Nc2cccnc2)cs1,> 4 mM (inactive)
3,O=C(Nn1cnnc1)c1ccccc1-c1ccccc1,> 4 mM (inactive)
4,c1coc(CNc2ncnc3nc[nH]c23)c1,> 4 mM (inactive)
5,CC1CCN(C(=O)c2cc3ccccc3o2)CC1,> 4 mM (inactive)
6,COc1nc(C)ccc1-c1noc(-c2ccco2)n1,> 4 mM (inactive)
7,CC(C)(C)CC(=O)NNC(=O)c1cnccn1,> 4 mM (inactive)
8,Cc1cc(OC(=O)c2ccco2)c([N+](=O)[O-])c(=O)[nH]1,> 4 mM (inactive)
9,CC(=O)c1cccc(N=C2NC(=O)CS2)c1,> 4 mM (inactive)
10,CN1CCC(=NNC(=O)c2ccco2)CC1,> 4 mM (inactive)
11,O=C1NC(=S)NC(=O)C1=Cc1ccncc1,> 4 mM (inactive)
12,O=C1CNC(=O)N1c1cccc(Cl)c1,> 4 mM (inactive)
13,NCC1CN(Cc2ccccc2)CCO1 (stereo not drawn),> 4 mM (inactive)
14,Cc1n[nH]c(=O)c2ncn(C)c12,> 4 mM (inactive)
15,CNCc1ccccc1,> 4 mM (inactive)
16,Cc1cc(=O)n(CCc2ccccc2)c(O)c1C#N,> 4 mM (inactive)
17,Cn1cc(Cl)c(C(=O)NC2CCCCCC2)n1,> 4 mM (inactive)
18,Cc1occc1C(=O)Nc1nccs1,> 4 mM (inactive)
19,O=C(NCc1cccs1)c1ccc2c(c1)OCCO2,> 4 mM (inactive)
20,Cc1nc(-c2cccc(-c3noc(C)n3)c2)no1,> 4 mM (inactive)
21,C=C1CCC2C(CC2(C)C)C(=C)CC/C1=N/O (stereo not drawn),> 4 mM (inactive)
22,CCC(CCC(C)[C@H]1CCC2C3CC=C4C[C@@H](O)CC[C@]4(C)C3CC[C@@]21C)C(C)C (stereo partly drawn),> 4 mM (inactive)
23,O=C(Nn1cnnc1)c1csc2ccccc12,> 4 mM (inactive)
